# Data published in patent US11286263B2, “Macrocyclic fluorine substituted indole derivatives” (The Broad Institute, Inc., priority 2017, dated 2022).
# Biological target: MCL-1 (Homo sapiens (Human), UniProt Q07820, K194A/K197A/R201A)
# Test: Protein-protein interaction assay MCL-1/Noxa BH3 peptide (MCL-1 assay), TR-FRET
# Type: binding
# Details: MCL-1/Noxa BH3 peptide TR-FRET; median
# In short: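 TR-FRET competition between MBP-MCL-1 (173-321, 1 nM) and biotin-Noxa BH3 peptide (1 nM) with anti-MBP-Eu/streptavidin-XL665; 11 compound levels 0.1 nM–20 μM, 10 min preincubation. Incubated 1 h at 22 °C then overnight at 4 °C, pH 7 Tris buffer. 665/620 ratio normalized to DMSO and no-MCL-1; 4-parameter IC50.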
# MCL-1, sequence (Q07820 whole entry K194A/K197A/R201A, looked up): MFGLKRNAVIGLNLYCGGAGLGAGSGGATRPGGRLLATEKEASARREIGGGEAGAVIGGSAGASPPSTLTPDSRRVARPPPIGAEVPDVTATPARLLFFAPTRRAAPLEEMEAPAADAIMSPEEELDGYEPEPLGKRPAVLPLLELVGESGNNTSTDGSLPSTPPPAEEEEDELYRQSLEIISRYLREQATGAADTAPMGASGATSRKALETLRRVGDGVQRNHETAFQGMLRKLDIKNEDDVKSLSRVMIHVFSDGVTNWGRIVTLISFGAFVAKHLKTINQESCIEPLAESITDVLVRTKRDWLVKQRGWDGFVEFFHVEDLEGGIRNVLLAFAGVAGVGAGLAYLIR
row,IC50 [nM],SMILES
1,2.3,"CCc1c2c(nn1C)COC/C=C\Cn1c(C(=O)O)c(CCCOc3cccc4ccccc34)c3ccc(F)c-2c31 (racemic) [Example 5, (rac)-(11Z)-3-ethyl-4-fluoro-2-methyl-7-[3-(naphthalen-1-yloxy)propyl]-2,10,13,15-tetrahydro-pyrazolo[4′,3′:9,10][1,6]oxazacycloundecino[8,7,6-hi]indole-8-carboxylic acid]"
2,2.2,"CCc1nn(C)c2c1-c1c(F)ccc3c(CCCOc4cccc5ccccc45)c(C(=O)O)n(c13)C/C=C\COC2 (racemic) [Example 11, (rac)-(Z)-12-ethyl-13-fluoro-10-methyl-1-(3-(naphthalen-1-yloxy)propyl)-4,7,9,10-tetrahydro-pyrazolo[4′,3′:9,10][1]oxa[6]azacycloundecino[8,7,6-hi]indole-2-carboxylic acid]"
3,1.3,"Cc1c2c(nn1C)COCCCCn1c(C(=O)O)c(CCCOc3ccc(F)c4ccccc34)c3ccc(F)c-2c31 (racemic) [Example 15, (rac)-13-fluoro-1-(3-((4-fluoronaphthalen-1-yl)oxy)propyl)-11,12-dimethyl-4,5,6,7,9,11-hexahydropyrazolo[4′,3′:9,10][1]oxa[6]azacycloundecino[8,7,6-hi]indole-2-carboxylic acid]"
4,1.5,"CCc1c2c(nn1C)COCCCCn1c(C(=O)O)c(CCCOc3cccc4c3CCCC4)c3ccc(F)c-2c31 (racemic) [Example 29, (rac)-12-ethyl-13-fluoro-11-methyl-1-(3-((5,6,7,8-tetrahydronaphthalen-1-yl)oxy)propyl)-4,5,6,7,9,11-hexahydropyrazolo[4′,3′:9,10][1]oxa[6]azacycloundecino[8,7,6-hi]indole-2-carboxylic acid]"
5,1.1,"Cc1nn(C)c2c1-c1c(F)ccc3c(CCCOc4cccc5cc(F)ccc45)c(C(=O)O)n(c13)CCCCOC2 (racemic) [Example 32, (rac)-13-fluoro-1-(3-((6-fluoronaphthalen-1-yl)oxy)propyl)-10,12-dimethyl-4,5,6,7,9,10-hexahydropyrazolo[4′,3′:9,10][1]oxa[6]azacycloundecino[8,7,6-hi]indole-2-carboxylic acid]"
6,1.7,"Cc1nn(C)c2c1-c1c(F)ccc3c(CCCOc4ccc(F)c5ccccc45)c(C(=O)O)n(c13)CCCCOC2 (racemic) [Example 33, (rac)-13-fluoro-1-(3-((4-fluoronaphthalen-1-yl)oxy)propyl)-10,12-dimethyl-4,5,6,7,9,10-hexahydropyrazolo[4′,3′:9,10][1]oxa[6]azacycloundecino[8,7,6-hi]indole-2-carboxylic acid]"
7,1.3,"Cc1nn(C)c2c1-c1c(F)ccc3c(CCCOc4cccc5c4CCC5)c(C(=O)O)n(c13)CCCCOC2 (racemic) [Example 35, (rac)-1-(3-((2,3-dihydro-1H-inden-4-yl)oxy)propyl)-13-fluoro-10,12-dimethyl-4,5,6,7,9,10-hexahydropyrazolo[4′,3′:9,10][1]oxa[6]azacycloundecino[8,7,6-hi]indole-2-carboxylic acid]"
8,1.7,"CCc1nn(C)c2c1-c1c(F)ccc3c(CCCOc4cccc5c4CCCC5)c(C(=O)O)n(c13)CCCCOC2 (racemic) [Example 44, (rac)-12-ethyl-13-fluoro-10-methyl-1-(3-((5,6,7,8-tetrahydronaphthalen-1-yl)oxy)propyl)-4,5,6,7,9,10-hexahydropyrazolo[4′,3′:9,10][1]oxa[6]azacycloundecino[8,7,6-hi]indole-2-carboxylic acid]"
9,1.4,"CCc1nn(C)c2c1-c1c(F)ccc3c(CCCOc4cccc5c4CCC5)c(C(=O)O)n(c13)CCCCOC2 (racemic) [Example 45, (rac)-1-(3-((2,3-dihydro-1H-inden-4-yl)oxy)propyl)-12-ethyl-13-fluoro-10-methyl-4,5,6,7,9,10-hexahydropyrazolo[4′,3′:9,10][1]oxa[6]azacycloundecino[8,7,6-hi]indole-2-carboxylic acid]"
10,2,"CCc1nn(C)c2c1-c1c(F)ccc3c(CCCOc4cc(C)c(Cl)c(C)c4)c(C(=O)O)n(c13)CCCCOC2 (racemic) [Example 46, (rac)-1-(3-(4-chloro-3,5-dimethylphenoxy)propyl)-12-ethyl-13-fluoro-10-methyl-4,5,6,7,9,10-hexahydropyrazolo[4′,3′:9,10][1]oxa[6]azacycloundecino[8,7,6-hi]indole-2-carboxylic acid]"
11,1.7,"CCc1c2c(nn1C)CN(C)CCCCn1c(C(=O)O)c(CCCOc3cccc4c3CCCC4)c3ccc(F)c-2c31 (racemic) [Example 52, (rac)-3-ethyl-4-fluoro-2,14-dimethyl-7-[3-(5,6,7,8-tetrahydronaphthalen-1-yloxy)propyl]-10,11,12,13,14,15-hexahydro-2H-pyrazolo[3′,4′:8,9][1,6]diazacycloundecino[10,11,1-hi]indole-8-carboxylic acid]"

# Further lines, the molecule ahead of its results:
row,SMILES,IC50 [nM]
1,"Cc1c2c(nn1C)COC/C=C\Cn1c(C(=O)O)c(CCCOc3cccc4ccccc34)c3ccc(F)c-2c31 (racemic) [Example 1, (rac)-(11Z)-4-fluoro-2,3-dimethyl-7-[3-(naphthalen-1-yloxy)propyl]-2,10,13,15-tetrahydro-pyrazolo[4′,3′:9,10][1,6]oxazacycloundecino[8,7,6-hi]indole-8-carboxylic acid]",1.8
2,"Cc1c2c(nn1C)COCCCCn1c(C(=O)O)c(CCCOc3cccc4ccccc34)c3ccc(F)c-2c31 (racemic) [Example 2, (rac)-4-fluoro-2,3-dimethyl-7-[3-(naphthalen-1-yloxy)propyl]-2,10,11,12,13,15-hexahydro-pyrazolo[4′,3′:9,10][1,6]oxazacycloundecino[8,7,6-hi]indole-8-carboxylic acid]",1.2
3,"Cc1nn(C)c2c1-c1c(F)ccc3c(CCCOc4cccc5ccccc45)c(C(=O)O)n(c13)C/C=C\COC2 (racemic) [Example 9, (rac)-(Z)-13-fluoro-10,12-dimethyl-1-(3-(naphthalen-1-yloxy)propyl)-4,7,9,10-tetrahydro-pyrazolo[4′,3′:9,10][1]oxa[6]azacycloundecino[8,7,6-hi]indole-2-carboxylic acid]",2.4
4,"Cc1nn(C)c2c1-c1c(F)ccc3c(CCCOc4cccc5ccccc45)c(C(=O)O)n(c13)CCCCOC2 (racemic) [Example 10, (rac)-13-fluoro-10,12-dimethyl-1-(3-(naphthalen-1-yloxy)propyl)-4,5,6,7,9,10-hexahydro-pyrazolo[4′,3′:9,10][1]oxa[6]azacycloundecino[8,7,6-hi]indole-2-carboxylic acid]",1.1
5,"Cc1c2c(nn1C)COCCCCn1c(C(=O)O)c(CCCOc3cccc4c3CCCC4)c3ccc(F)c-2c31 (racemic) [Example 18, (rac)-13-fluoro-11,12-dimethyl-1-(3-((5,6,7,8-tetrahydronaphthalen-1-yl)oxy)propyl)-4,5,6,7,9,11-hexahydropyrazolo[4′,3′:9,10][1]oxa[6]azacycloundecino[8,7,6-hi]indole-2-carboxylic acid]",1.6
6,"Cc1c2c(nn1C)COCCCCn1c(C(=O)O)c(CCCOc3cccc4c3CCC4)c3ccc(F)c-2c31 (racemic) [Example 19, (rac)-1-(3-((2,3-dihydro-1H-inden-4-yl)oxy)propyl)-13-fluoro-11,12-dimethyl-4,5,6,7,9,11-hexahydropyrazolo[4′,3′:9,10][1]oxa[6]azacycloundecino[8,7,6-hi]indole-2-carboxylic acid]",1.5
7,"Cc1cc(OCCCc2c(C(=O)O)n3c4c(c(F)ccc24)-c2c(nn(C)c2C)COCCCC3)cc(C)c1Cl (racemic) [Example 20, (rac)-1-(3-(4-chloro-3,5-dimethylphenoxy)propyl)-13-fluoro-11,12-dimethyl-4,5,6,7,9,11-hexahydropyrazolo[4′,3′:9,10][1]oxa[6]azacycloundecino[8,7,6-hi]indole-2-carboxylic acid]",1.5
8,"CCc1c2c(nn1C)COCCCCn1c(C(=O)O)c(CCCOc3cc(C)c(Cl)c(C)c3)c3ccc(F)c-2c31 (racemic) [Example 31, (rac)-1-(3-(4-chloro-3,5-dimethylphenoxy)propyl)-12-ethyl-13-fluoro-11-methyl-4,5,6,7,9,11-hexahydropyrazolo[4′,3′:9,10][1]oxa[6]azacycloundecino[8,7,6-hi]indole-2-carboxylic acid]",1.8
9,"Cc1nn(C)c2c1-c1c(F)ccc3c(CCCOc4cccc5c4CCCC5)c(C(=O)O)n(c13)CCCCOC2 (racemic) [Example 34, (rac)-13-fluoro-10,12-dimethyl-1-(3-((5,6,7,8-tetrahydronaphthalen-1-yl)oxy)propyl)-4,5,6,7,9,10-hexahydropyrazolo[4′,3′:9,10][1]oxa[6]azacycloundecino[8,7,6-hi]indole-2-carboxylic acid]",1.3
10,"Cc1cc(OCCCc2c(C(=O)O)n3c4c(c(F)ccc24)-c2c(C)nn(C)c2COCCCC3)cc(C)c1Cl (racemic) [Example 36, (rac)-1-(3-(4-chloro-3,5-dimethylphenoxy)propyl)-13-fluoro-10,12-dimethyl-4,5,6,7,9,10-hexahydropyrazolo[4′,3′:9,10][1]oxa[6]azacycloundecino[8,7,6-hi]indole-2-carboxylic acid]",2.1
11,"CCc1nn(C)c2c1-c1c(F)ccc3c(CCCOc4cccc5ccccc45)c(C(=O)O)n(c13)CCCCOC2 (racemic) [Example 37, (rac)-12-ethyl-13-fluoro-10-methyl-1-(3-(naphthalen-1-yloxy)propyl)-4,5,6,7,9,10-hexahydro-pyrazolo[4′,3′:9,10][1]oxa[6]azacycloundecino[8,7,6-hi]indole-2-carboxylic acid]",1.2
12,"CCc1c2c(nn1C)CN(C)CCCCn1c(C(=O)O)c(CCCOc3cccc4c3CCC4)c3ccc(F)c-2c31 (racemic) [Example 51, (rac)-7-[3-(2,3-dihydro-1H-inden-4-yloxy)propyl]-3-ethyl-4-fluoro-2,14-dimethyl-10,11,12,13,14,15-hexahydro-2H-pyrazolo[3′,4′:8,9][1,6]diazacycloundecino[10,11,1-hi]indole-8-carboxylic acid]",0.91
